Experimental data reported in US5674867A, “Indolocarbazole derivatives and therapeutic method for stimulating megakaicyocyte production” (Kyowa Hakko Kogyo Co., Ltd., priority 1992, dated 1997).
Several values for one entry are separate records, joined by “and”; a condition that tells them apart may be missing. Equal entries are not always repeated.

Experiments:
[1] = Acute toxicity test; settings: mouse, in vivo, ip; male DDY mice, intraperitoneal, survival after 24 hours; read-out: LD50 (50% survival dose)
Method: To 6-weeks-old male DDY mice (3 per group) was intraperitoneally administered 0.2 ml of a solution of a test compound in a phosphate-buffered physiological saline. The 50% survival doses (LD50) were calculated from the survival rate after 24 hours. The LD50 for Compounds I-1, 17, 25, 26, 30-33, 35, 40 and 52 was >1 mg/kg, while that for all the other compounds was >30 mg/kg.

[2] = tested on: bone marrow cells (megakaryocyte colony formation); test: Megakaryocyte colony formation-stimulating activity (ACHE-stained colonies, bone marrow cells with IL-3); assay type: cell-based, BALB/c mouse; settings: with IL-3 100 U/ml, 7 days
Method: An eight-weeks-old BALB/c mouse was killed. Its femurs and cervical vertebrae were taken out, and both end sections thereof were cut off. Bone marrow cells were collected from the pieces cut off from the femurs and cervical vertebrae using a syringe containing IMDM (430-2200EA prepared by Gibco Co.), and then blown into a test tube. The test tube was allowed to stand for 5 minutes, and the supernatant was collected with a pipet. To a reaction mixture comprising the bone marrow cells (50,000 cells), bovine serum albumin (2%: A4508 made by Sigma Co.), transferrin (600 μg/ml 652202 made by Boehringer Mannheim Co.), IL-3 (100 U/ml), cholesterol (16 μg/ml: 036-0641 made by Wako Co.) and agar (0.6%: 0142-02 made by Difco Laboratories) were separately added the test compounds at various concentrations, and 1 ml each of the mixtures was put into a 35-mm dish (Lux Co.), followed by incubation under the conditions of 37° C., 5% CO2 and a humidity of 95% or more for 7 days. Separately, IL-3 alone was added to the bone marrow cells to prepare a control, whereas a positive control was prepared by adding 200 U/ml IL-6 to the above-mentioned reaction mixture. After the incubation was completed, the agar was dried over a filter paper (1001-055 made by Whatman Co.) and then fixed with 2.5% glutaraldehyde, followed by acetylcholinesterase staining (ACHE staining).
The ACHE staining was carried out by the method described below.
ACHE staining: To each sample was added a solution comprising 0.67 mg/ml acetylthiocholine iodide, 2.94 mg/ml sodium citrate, 7.5 mg/ml copper (II) sulfate and 1.65 mg/ml potassium ferricyanide, and the mixture was allowed to stand at room temperature in the dark for 4-6 hours.
A group of 4 or more megakaryocytes which were stained reddish brown was regarded as a colony, and the number of colonies per dish was calculated using a microscope. The results are shown in Table 2 as relative values to the control.

[3] = tested on: platelets; test: Platelet production-stimulating activity in mice; assay type: in vivo, BALB/c mice; settings: 7.5 mg/kg/day × 5, caudal vein; for Number of platelets, individual mouse: 7.5 mg/kg/day
Method: BALB/c mice (male, 7-weeks-old) were divided into 2 groups. To one group (control group) was administered a solvent (1% lactic acid, 4% aqueous solution of glucose) alone. On the other hand, the test group (Compound I-1-administered group) received 0.2 ml of a solution of Compound I-1 in the above solvent at a dose of 7.5 mg/kg via the caudal vein once a day for 5 days (Day 1-Day 5). On the day before the administration (Day 0) and the seventh day after the start of administration (Day 7), the ninth day (Day 9), the 14th day (Day 14) and the 21st day (Day 21), 20 μl of blood was collected from the fundus oculi vein of the mice of each group, and the number of the platelets was counted with a microcell counter (Type CC-180A made by Toa Iryo Denshi Co.).

## CNC1CC2OC(C)(C1OC)n1c3ccc(C(C)=O)cc3c3c4c(c5c6cc(C(C)=O)ccc6n2c5c31)C(=O)NC4 (stereo not shown) [Compound I-31]
[1]
  LD50 at 24 h: > 1 mg/kg
[2]; 0.1 nM
  Relative value (megakaryocyte colonies, control = 100): 76
[2]; 1 nM
  Relative value (megakaryocyte colonies, control = 100): 94
[2]; 10 nM
  Relative value (megakaryocyte colonies, control = 100): 109

## CNC1CC2OC(C)(C1OC)n1c3ccccc3c3c4c(c5c6cc(O)ccc6n2c5c31)C(=O)NC4 (stereo not shown) [Compound I-52]
[1]
  LD50 at 24 h: > 1 mg/kg

## CN[C@@H]1C[C@H]2O[C@@](C)([C@@H]1OC)n1c3ccccc3c3c4c(c5c6ccccc6n2c5c31)C(=O)NC4 [Compound I-17, staurosporine]
[1]
  LD50 at 24 h: > 1 mg/kg
[2]; 1.0 pM
  Relative value (megakaryocyte colonies, control = 100): 119
[2]; 10 pM
  Relative value (megakaryocyte colonies, control = 100): 107

## CNC1CC2OC(C)(C1OC)n1c3ccccc3c3c4c(c5c6cc(C(C)=O)ccc6n2c5c31)C(=O)NC4 (stereo not shown) [Compound I-30]
[1]
  LD50 at 24 h: > 1 mg/kg
[2]; 0.1 nM
  Relative value (megakaryocyte colonies, control = 100): 111
[2]; 1 nM
  Relative value (megakaryocyte colonies, control = 100): 119
[2]; 10 nM
  Relative value (megakaryocyte colonies, control = 100): 117

## COC(=O)C1(OC)CC2OC1(C)n1c3ccc(Br)cc3c3c4c(c5c6cc(Br)ccc6n2c5c31)C(=O)NC4 (stereo not shown) [Compound I-40]
[1]
  LD50 at 24 h: > 1 mg/kg
[2]; 0.1 nM
  Relative value (megakaryocyte colonies, control = 100): 109
[2]; 1 nM
  Relative value (megakaryocyte colonies, control = 100): 125
[2]; 10 nM
  Relative value (megakaryocyte colonies, control = 100): 114

## CCCN(C)C1CC2OC(C)(C1OC)n1c3ccccc3c3c4c(c5c6ccccc6n2c5c31)C(=O)NC4 (stereo not shown) [Compound I-26]
[1]
  LD50 at 24 h: > 1 mg/kg
[2]; 0.1 nM
  Relative value (megakaryocyte colonies, control = 100): 108
[2]; 1 nM
  Relative value (megakaryocyte colonies, control = 100): 121
[2]; 10 nM
  Relative value (megakaryocyte colonies, control = 100): 111

## CNC1CC2OC(C)(C1OC)n1c3ccccc3c3c4c(c5c6ccccc6n2c5c31)C(=O)NC4O (stereo not shown) [Compound I-1]
[1]
  LD50 at 24 h: > 1 mg/kg
[2]; 1 nM
  Relative value (megakaryocyte colonies, control = 100): 127
[3]; Day 0 (day before administration)
  Number of platelets, individual mouse: 92.6 × 10^4 /mm^3 and 90.5 × 10^4 /mm^3 and 94.2 × 10^4 /mm^3 and 117.6 × 10^4 /mm^3 and 111.7 × 10^4 /mm^3 and 95.5 × 10^4 /mm^3
[3]; Day 0 (day before administration), control average 110.9
  Number of platelets (Average): 100.4 × 10^4 /mm^3
[3]; Day 0, control 100
  % Relative value (number of platelets, Day 0 = 100): 100%
[3]; Day 7
  Number of platelets, individual mouse: 103.1 × 10^4 /mm^3 and 91.8 × 10^4 /mm^3 and 119.4 × 10^4 /mm^3 and 155.7 × 10^4 /mm^3 and 136.3 × 10^4 /mm^3 and 111.2 × 10^4 /mm^3
[3]; Day 7, control 120.3
  % Relative value (number of platelets, Day 0 = 100): 119.1%
[3]; Day 7, control average 133.4
  Number of platelets (Average): 119.6 × 10^4 /mm^3
[3]; Day 9
  Number of platelets, individual mouse: 125.3 × 10^4 /mm^3 and 160.0 × 10^4 /mm^3 and 144.5 × 10^4 /mm^3 and 136.1 × 10^4 /mm^3 and 146.8 × 10^4 /mm^3
[3]; Day 9, control 103.2
  % Relative value (number of platelets, Day 0 = 100): 144.9%
[3]; Day 9, control average 114.5
  Number of platelets (Average): 145.5 × 10^4 /mm^3
[3]; Day 14
  Number of platelets, individual mouse: 125.3 × 10^4 /mm^3 and 106.4 × 10^4 /mm^3 and 121.1 × 10^4 /mm^3 and 145.4 × 10^4 /mm^3 and 112.3 × 10^4 /mm^3 and 115.0 × 10^4 /mm^3
[3]; Day 14, control 98.4
  % Relative value (number of platelets, Day 0 = 100): 120.4%
[3]; Day 14, control average 109.1
  Number of platelets (Average): 120.9 × 10^4 /mm^3
[3]; Day 21
  Number of platelets, individual mouse: 133.9 × 10^4 /mm^3 and 202.7 × 10^4 /mm^3 and 153.0 × 10^4 /mm^3 and 139.6 × 10^4 /mm^3 and 135.5 × 10^4 /mm^3 and 163.9 × 10^4 /mm^3
[3]; Day 21, control 103.1
  % Relative value (number of platelets, Day 0 = 100): 154.2%
[3]; Day 21, control average 114.3
  Number of platelets (Average): 154.8 × 10^4 /mm^3

## CCCOc1ccc2c(c1)c1c3c(c4c5ccccc5n5c4c1n2C1CC(NC)C(OC)C5(C)O1)CNC3=O (stereo not shown) [Compound I-33]
[1]
  LD50 at 24 h: > 1 mg/kg
[2]; 0.1 nM
  Relative value (megakaryocyte colonies, control = 100): 101
[2]; 1 nM
  Relative value (megakaryocyte colonies, control = 100): 114
[2]; 10 nM
  Relative value (megakaryocyte colonies, control = 100): 105

## CNC1CC2OC(C)(C1OC)n1c3ccc(C=O)cc3c3c4c(c5c6cc(C=O)ccc6n2c5c31)C(=O)NC4 (stereo not shown) [Compound I-32]
[1]
  LD50 at 24 h: > 1 mg/kg
[2]; 0.1 nM
  Relative value (megakaryocyte colonies, control = 100): 76
[2]; 1 nM
  Relative value (megakaryocyte colonies, control = 100): 94
[2]; 10 nM
  Relative value (megakaryocyte colonies, control = 100): 109

## COC(=O)C1(O)CC2OC1(C)n1c3ccccc3c3c4c(c5c6ccccc6n2c5c31)C(=O)NC4 (stereo not shown) [Compound I-35, K-252a]
[1]
  LD50 at 24 h: > 1 mg/kg
[2]; 1.0 pM
  Relative value (megakaryocyte colonies, control = 100): 130
[2]; 10 pM
  Relative value (megakaryocyte colonies, control = 100): 140

## COC1C(N(C)C)CC2OC1(C)n1c3ccccc3c3c4c(c5c6ccccc6n2c5c31)C(=O)NC4 (stereo not shown) [Compound I-25]
[1]
  LD50 at 24 h: > 1 mg/kg
[2]; 0.1 nM
  Relative value (megakaryocyte colonies, control = 100): 119
[2]; 1 nM
  Relative value (megakaryocyte colonies, control = 100): 124
[2]; 10 nM
  Relative value (megakaryocyte colonies, control = 100): 100

## CCCCCCN1Cc2c(c3c4ccccc4n4c3c3c2c2ccccc2n3C2(C)OC4CC(NC)C2OC)C1=O (stereo not shown) [Compound I-20]
[2]; 0.1 nM
  Relative value (megakaryocyte colonies, control = 100): 107
[2]; 1 nM
  Relative value (megakaryocyte colonies, control = 100): 131
[2]; 10 nM
  Relative value (megakaryocyte colonies, control = 100): 144

## CNC1CC2OC(C)(C1OC)n1c3ccccc3c3c4c(c5c6ccccc6n2c5c31)C(=O)N(C)C4 (stereo not shown) [Compound I-22]
[2]; 0.1 nM
  Relative value (megakaryocyte colonies, control = 100): 116
[2]; 1 nM, 10080 min, 0.001 µM
  Relative value (megakaryocyte colonies, control = 100): 120
[2]; 10 nM
  Relative value (megakaryocyte colonies, control = 100): 100

## CCCCOC(=O)C1(O)CC2OC1(C)n1c3ccccc3c3c4c(c5c6ccccc6n2c5c31)C(=O)NC4 (stereo not shown) [Compound I-15]
[2]; 0.1 nM
  Relative value (megakaryocyte colonies, control = 100): 120
[2]; 1 nM
  Relative value (megakaryocyte colonies, control = 100): 121
[2]; 10 nM
  Relative value (megakaryocyte colonies, control = 100): 132
